pIC50: −log10 of the molar value. Bridge positions count the residues as written; N and C are the ends. Square brackets hold non-standard residues; d marks the D form. Peptide text beside a SMILES is read from it. * marks the point of attachment. Phe(3-CF3) = N[C@@H](Cc1cccc(C(F)(F)F)c1)C(=O)O; Phe(4-COOH) = N[C@@H](Cc1ccc(C(=O)O)cc1)C(=O)O; Bip = N[C@@H](Cc1ccc(-c2ccccc2)cc1)C(=O)O; NH(CH2)14COOH = O=C(O)CCCCCCCCCCCCCCN*; NH(CH2)12COOH = O=C(O)CCCCCCCCCCCCN*; Val(3-OH) = CC(C)(O)[C@H](N)C(=O)O; Cha = N[C@@H](CC1CCCCC1)C(=O)O; PEG4 = NCCOCCOCCOCCOCCC(=O)O; Carboxymethyl = O=C(O)C*; Nle = CCCC[C@H](N)C(=O)O; Orn = NCCC[C@H](N)C(=O)O; Dab = NCC[C@H](N)C(=O)O; Nva = CCC[C@H](N)C(=O)O; AEEA = NCCOCCOCC(=O)O
Molecular target: T1, PD-1/PD-L1 interaction (PE-labeled human PD-L1-Ig binding to Jurkat cell line over-expressing human PD-1) (Homo sapiens, UniProt Q15116)
T1 construct: expressed in transfected cells; host or cells: Jurkat
T1 sequence (Q15116 25-288): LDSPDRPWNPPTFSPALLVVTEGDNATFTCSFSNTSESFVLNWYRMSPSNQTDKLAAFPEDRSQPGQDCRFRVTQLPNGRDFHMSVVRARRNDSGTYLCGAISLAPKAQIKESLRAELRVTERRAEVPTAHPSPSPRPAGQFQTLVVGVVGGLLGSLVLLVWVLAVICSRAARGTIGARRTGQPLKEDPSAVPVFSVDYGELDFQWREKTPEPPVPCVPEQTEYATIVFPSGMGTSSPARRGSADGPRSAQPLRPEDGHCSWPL
Assay: Jurkat-PD-1 Cell Binding High-Content Screening Assay (CBA)
Format: cell-based
Details: Jurkat cell line over-expressing human PD-1; PE-labeled PD-L1-Ig 20 nM final; read-out: Jurkat hPD1-PDL1 IC50
In short: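 Jurkat-hPD-1 cells, DMEM/10% FCS; cpd 2 h 37° C; PE-PD-L1-Ig 20 nM final, 1 h; 4% PFA fix + Hoechst 33342, 3× dPBS wash; high-content imaging read-out.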

Row | Compound | pIC50
1 | CCC[C@@H]1NC(=O)CSC[C@@H](C(=O)N[C@@H](CCN)C(=O)NCCCCCCCCCCCCC(=O)O)NC(=O)[C@H](CO)NC(=O)[C@H](C(C)(C)O)NC(=O)[C@H](CC2CCCCC2)NC(=O)[C@H](CCN)NC(=O)[C@@H](CC(C)C)NC(=O)[C@H](CCCN)NC(=O)[C@H](Cc2ccc(OCC(=O)O)cc2)NC(=O)[C@H](Cc2ccc(-c3ccccc3)cc2)NC(=O)[C@H](Cc2ccc(OCC(=O)O)cc2)NC(=O)[C@H](Cc2cccc(C(F)(F)F)c2)NC(=O)[C@H](CC(=O)O)NC(=O)[C@H](Cc2ccc(C(=O)O)cc2)NC1=O [Compound 2903] ({CH2CO}-[Nva][Phe(4-COOH)]D[Phe(3-CF3)]Y(Carboxymethyl)[Bip]Y(Carboxymethyl)[Orn][dL][Dab][Cha][Val(3-OH)]SC[Dab]-{NH(CH2)12COOH}; thioether N-14) | 7.56
2 | CCC[C@@H]1NC(=O)CSC[C@@H](C(=O)N[C@@H](CCN)C(=O)NCCCCCCCCCCCCCCC(=O)O)NC(=O)[C@H](CO)NC(=O)[C@H](C(C)(C)O)NC(=O)[C@H](CC2CCCCC2)NC(=O)[C@H](CCN)NC(=O)[C@@H](CC(C)C)NC(=O)[C@H](CCCN)NC(=O)[C@H](Cc2ccc(OCC(=O)O)cc2)NC(=O)[C@H](Cc2ccc(-c3ccccc3)cc2)NC(=O)[C@H](Cc2ccc(OCC(=O)O)cc2)NC(=O)[C@H](Cc2cccc(C(F)(F)F)c2)NC(=O)[C@H](CC(=O)O)NC(=O)[C@H](Cc2ccc(C(=O)O)cc2)NC1=O [Compound 2904] ({CH2CO}-[Nva][Phe(4-COOH)]D[Phe(3-CF3)]Y(Carboxymethyl)[Bip]Y(Carboxymethyl)[Orn][dL][Dab][Cha][Val(3-OH)]SC[Dab]-{NH(CH2)14COOH}; thioether N-14) | 6.29
3 | COC[C@@H]1NC(=O)CSC[C@@H](C(=O)N[C@@H](CCN)C(=O)NCCOCCOCCOCCOCCC(=O)NCCCCCCCCCCCCC(=O)O)NC(=O)[C@H](CO)NC(=O)[C@H](C(C)(C)O)NC(=O)[C@H](CC2CCCCC2)NC(=O)[C@H](CCN)NC(=O)[C@@H](CC(C)C)NC(=O)[C@H](CCCN)NC(=O)[C@H](Cc2ccc(C(=O)O)cc2)NC(=O)[C@H](Cc2ccc(-c3ccccc3)cc2)NC(=O)[C@H](Cc2ccc(C(=O)O)cc2)NC(=O)[C@H](Cc2cccc(C(F)(F)F)c2)NC(=O)[C@H](CC(=O)O)NC(=O)[C@H](Cc2ccc(OCC(=O)O)cc2)NC1=O [Compound 2905] ({CH2CO}-S(Me)Y(Carboxymethyl)D[Phe(3-CF3)][Phe(4-COOH)][Bip][Phe(4-COOH)][Orn][dL][Dab][Cha][Val(3-OH)]SC[Dab][PEG4]-{NH(CH2)12COOH}; thioether N-14) | 7.15
4 | CCC[C@@H]1NC(=O)CSC[C@@H](C(=O)N[C@@H](CCN)C(=O)NCCOCCOCCOCCOCCC(=O)NCCCCCCCCCCCCCCC(=O)O)NC(=O)[C@H](CO)NC(=O)[C@H](C(C)(C)O)NC(=O)[C@H](CC2CCCCC2)NC(=O)[C@H](CCN)NC(=O)[C@@H](CC(C)C)NC(=O)[C@H](CCCN)NC(=O)[C@H](Cc2ccc(C(=O)O)cc2)NC(=O)[C@H](Cc2ccc(-c3ccccc3)cc2)NC(=O)[C@H](Cc2ccc(C(=O)O)cc2)NC(=O)[C@H](Cc2cccc(C(F)(F)F)c2)NC(=O)[C@H](CC(=O)O)NC(=O)[C@H](Cc2ccc(OCC(=O)O)cc2)NC1=O [Compound 2906] ({CH2CO}-[Nva]Y(Carboxymethyl)D[Phe(3-CF3)][Phe(4-COOH)][Bip][Phe(4-COOH)][Orn][dL][Dab][Cha][Val(3-OH)]SC[Dab][PEG4]-{NH(CH2)14COOH}; thioether N-14) | 7.01
5 | COC[C@@H]1NC(=O)CSC[C@@H](C(=O)N[C@@H](CCN)C(=O)NCCCCCCCCCCCCC(=O)O)NC(=O)[C@H](CO)NC(=O)[C@H](C(C)(C)O)NC(=O)[C@H](CC2CCCCC2)NC(=O)[C@H](CCN)NC(=O)[C@@H](CC(C)C)NC(=O)[C@H](CCCN)NC(=O)[C@H](Cc2ccc(C(=O)O)cc2)NC(=O)[C@H](Cc2ccc(-c3ccccc3)cc2)NC(=O)[C@H](Cc2ccc(C(=O)O)cc2)NC(=O)[C@H](Cc2cccc(C(F)(F)F)c2)NC(=O)[C@H](CC(=O)O)NC(=O)[C@H](Cc2ccc(OCC(=O)O)cc2)NC1=O [Compound 2907] ({CH2CO}-S(Me)Y(Carboxymethyl)D[Phe(3-CF3)][Phe(4-COOH)][Bip][Phe(4-COOH)][Orn][dL][Dab][Cha][Val(3-OH)]SC[Dab]-{NH(CH2)12COOH}; thioether N-14) | 7.38
6 | COC[C@@H]1NC(=O)CSC[C@@H](C(=O)N[C@@H](CCN)C(=O)NCCCCCCCCCCCCCCC(=O)O)NC(=O)[C@H](CO)NC(=O)[C@H](C(C)(C)O)NC(=O)[C@H](CC2CCCCC2)NC(=O)[C@H](CCN)NC(=O)[C@@H](CC(C)C)NC(=O)[C@H](CCCN)NC(=O)[C@H](Cc2ccc(C(=O)O)cc2)NC(=O)[C@H](Cc2ccc(-c3ccccc3)cc2)NC(=O)[C@H](Cc2ccc(C(=O)O)cc2)NC(=O)[C@H](Cc2cccc(C(F)(F)F)c2)NC(=O)[C@H](CC(=O)O)NC(=O)[C@H](Cc2ccc(OCC(=O)O)cc2)NC1=O [Compound 2908] ({CH2CO}-S(Me)Y(Carboxymethyl)D[Phe(3-CF3)][Phe(4-COOH)][Bip][Phe(4-COOH)][Orn][dL][Dab][Cha][Val(3-OH)]SC[Dab]-{NH(CH2)14COOH}; thioether N-14) | 6.27
7 | CCCC[C@@H]1NC(=O)CSC[C@@H](C(=O)N[C@@H](CCN)C(=O)NCCOCCOCC(=O)NCCOCCOCC(=O)NCCCCCCCCCCCCC(=O)O)NC(=O)[C@H](CO)NC(=O)[C@H](C(C)(C)O)NC(=O)[C@H](CC2CCCCC2)NC(=O)[C@H](CCN)NC(=O)[C@@H](CC(C)C)NC(=O)[C@H](CCCN)NC(=O)[C@H](Cc2ccc(C(=O)O)cc2)NC(=O)[C@H](Cc2ccc(-c3ccccc3)cc2)NC(=O)[C@H](Cc2ccc(C(=O)O)cc2)NC(=O)[C@H](Cc2cccc(C(F)(F)F)c2)NC(=O)[C@H](CC(=O)O)NC(=O)[C@H](Cc2ccc(OCC(=O)O)cc2)NC1=O [Compound 2909] ({CH2CO}-[Nle]Y(Carboxymethyl)D[Phe(3-CF3)][Phe(4-COOH)][Bip][Phe(4-COOH)][Orn][dL][Dab][Cha][Val(3-OH)]SC[Dab][AEEA][AEEA]-{NH(CH2)12COOH}; thioether N-14) | 7.74
8 | CCCC[C@@H]1NC(=O)CSC[C@@H](C(=O)N[C@@H](CCN)C(=O)NCCOCCOCCOCCOCCC(=O)NCCCCCCCCCCCCC(=O)O)NC(=O)[C@H](CO)NC(=O)[C@H](C(C)(C)O)NC(=O)[C@H](CC2CCCCC2)NC(=O)[C@H](CCN)NC(=O)[C@@H](CC(C)C)NC(=O)[C@H](CCCN)NC(=O)[C@H](Cc2ccc(C(=O)O)cc2)NC(=O)[C@H](Cc2ccc(-c3ccccc3)cc2)NC(=O)[C@H](Cc2ccc(C(=O)O)cc2)NC(=O)[C@H](Cc2cccc(C(F)(F)F)c2)NC(=O)[C@H](CC(=O)O)NC(=O)[C@H](Cc2ccc(OCC(=O)O)cc2)NC1=O [Compound 2911] ({CH2CO}-[Nle]Y(Carboxymethyl)D[Phe(3-CF3)][Phe(4-COOH)][Bip][Phe(4-COOH)][Orn][dL][Dab][Cha][Val(3-OH)]SC[Dab][PEG4]-{NH(CH2)12COOH}; thioether N-14) | 7.46
